What was measured:
[1] = biological target: Free fatty acid receptor 1 (Homo sapiens) (UniProt O14842); test: Agonist activity at human GPR40 expressed in HEK293 cells assessed as effect on calcium flux; format: functional, cell-based
[2] = biological target: Free fatty acid receptor 1 (Homo sapiens) (UniProt O14842); test: Agonist activity at human GPR40 expressed in HEK293 cells assessed as calcium flux response relative to linoleic acid; format: functional, cell-based; set-up: concentration or dose not given beside the values
[3] = biological target: Free fatty acid receptor 1 (Mus musculus) (UniProt Q76JU9); test: Agonist activity at GPR40 in mouse MIN6 cells assessed as stimulation of 25 mM glucose-mediated insulin secretion at 30 uM; format: functional, cell-based
Free fatty acid receptor 1 (Mus musculus), sequence (Q76JU9 whole entry): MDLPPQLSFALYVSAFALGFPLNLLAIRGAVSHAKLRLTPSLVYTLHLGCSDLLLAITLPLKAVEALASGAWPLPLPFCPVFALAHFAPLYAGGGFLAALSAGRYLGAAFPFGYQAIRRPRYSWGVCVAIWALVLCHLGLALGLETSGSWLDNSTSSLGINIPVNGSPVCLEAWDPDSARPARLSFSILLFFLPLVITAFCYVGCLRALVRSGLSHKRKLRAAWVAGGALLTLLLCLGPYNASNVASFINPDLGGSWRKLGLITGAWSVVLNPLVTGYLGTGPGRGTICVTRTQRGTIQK

Cytochrome P450 1A2 = biological target: T1, Cytochrome P450 1A2 (Homo sapiens, UniProt P05177); test: Inhibition of human CYP1A2; format: ADME
T1 sequence (P05177 whole entry): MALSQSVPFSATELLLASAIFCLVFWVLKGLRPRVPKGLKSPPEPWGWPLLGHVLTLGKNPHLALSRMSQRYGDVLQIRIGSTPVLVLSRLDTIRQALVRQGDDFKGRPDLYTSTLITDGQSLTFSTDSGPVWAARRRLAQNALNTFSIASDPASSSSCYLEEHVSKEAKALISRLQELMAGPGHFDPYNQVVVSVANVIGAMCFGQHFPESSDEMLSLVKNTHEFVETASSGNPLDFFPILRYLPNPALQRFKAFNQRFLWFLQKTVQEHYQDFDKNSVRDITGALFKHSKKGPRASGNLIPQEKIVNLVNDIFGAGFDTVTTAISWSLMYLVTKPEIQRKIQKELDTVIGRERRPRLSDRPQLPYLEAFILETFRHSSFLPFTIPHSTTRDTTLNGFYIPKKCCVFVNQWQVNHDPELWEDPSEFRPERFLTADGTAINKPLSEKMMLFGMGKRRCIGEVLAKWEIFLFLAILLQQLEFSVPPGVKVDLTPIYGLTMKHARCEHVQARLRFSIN

[4] = Half life in rat at 10 mg/kg, po; format: ADME, organism-based; set-up: dose 10 mg/kg, route oral; settings: in vivo
[5] = Half life in rat at 2 mg/kg, iv; format: ADME, organism-based; set-up: dose 2 mg/kg, route intravenous; settings: in vivo
[6] = Clearance in rat at 2 mg/kg, iv; format: ADME, organism-based; set-up: dose 2 mg/kg, route intravenous; settings: in vivo
[7] = AUC in rat at 2 mg/kg, iv; format: ADME, organism-based; set-up: dose 2 mg/kg, route intravenous; settings: plasma
[8] = Cmax in rat at 10 mg/kg, po; format: ADME, organism-based; set-up: dose 10 mg/kg, route oral; settings: in vivo
[9] = Tmax in rat at 2 mg/kg, iv; format: ADME, organism-based; set-up: dose 2 mg/kg, route intravenous; settings: in vivo
[10] = Oral bioavailability in rat at 10 mg/kg, po; format: ADME, organism-based; settings: in vivo
Cytochrome P450 3A4 = Cytochrome P450 3A4 (Homo sapiens, UniProt P08684); test: Inhibition of human CYP3A4; format: ADME
Cytochrome P450 3A4, sequence (P08684 whole entry): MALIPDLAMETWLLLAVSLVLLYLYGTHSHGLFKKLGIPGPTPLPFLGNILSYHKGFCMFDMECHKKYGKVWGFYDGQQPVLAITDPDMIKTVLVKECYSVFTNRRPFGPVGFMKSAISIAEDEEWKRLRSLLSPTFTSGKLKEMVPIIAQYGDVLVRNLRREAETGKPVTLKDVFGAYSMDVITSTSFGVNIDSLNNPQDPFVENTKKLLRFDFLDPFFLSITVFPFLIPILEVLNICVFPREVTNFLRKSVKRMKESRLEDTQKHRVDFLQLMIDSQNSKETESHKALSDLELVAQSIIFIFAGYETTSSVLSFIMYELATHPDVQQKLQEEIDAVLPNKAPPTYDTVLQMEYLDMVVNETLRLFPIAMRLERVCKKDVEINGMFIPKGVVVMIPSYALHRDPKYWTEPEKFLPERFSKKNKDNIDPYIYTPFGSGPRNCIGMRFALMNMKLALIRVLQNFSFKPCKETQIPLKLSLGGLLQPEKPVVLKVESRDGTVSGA

Cytochrome P450 2D6 = Cytochrome P450 2D6 (Homo sapiens, UniProt P10635); test: Inhibition of human CYP2D6; format: ADME
Cytochrome P450 2D6, sequence (P10635 whole entry): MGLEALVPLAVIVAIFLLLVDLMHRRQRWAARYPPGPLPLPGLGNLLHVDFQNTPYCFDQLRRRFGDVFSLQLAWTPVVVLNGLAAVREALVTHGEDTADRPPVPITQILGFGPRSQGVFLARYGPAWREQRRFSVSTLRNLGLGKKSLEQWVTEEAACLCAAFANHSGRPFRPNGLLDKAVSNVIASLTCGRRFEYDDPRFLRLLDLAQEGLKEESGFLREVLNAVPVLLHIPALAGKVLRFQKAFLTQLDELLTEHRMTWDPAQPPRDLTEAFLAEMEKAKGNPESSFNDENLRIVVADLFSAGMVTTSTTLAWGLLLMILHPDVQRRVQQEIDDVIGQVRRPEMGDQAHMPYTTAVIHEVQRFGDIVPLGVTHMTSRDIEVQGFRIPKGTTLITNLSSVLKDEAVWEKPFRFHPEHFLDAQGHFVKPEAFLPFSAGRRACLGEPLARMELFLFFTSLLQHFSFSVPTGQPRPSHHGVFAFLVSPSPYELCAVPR

[11] = Cmax in rat at 2 mg/kg, iv; format: ADME, organism-based; set-up: dose 2 mg/kg, route intravenous; settings: in vivo
Cytochrome P450 2C19 = Cytochrome P450 2C19 (Homo sapiens, UniProt P33261); test: Inhibition of human CYP2C19; format: ADME
Cytochrome P450 2C19, sequence (P33261 whole entry): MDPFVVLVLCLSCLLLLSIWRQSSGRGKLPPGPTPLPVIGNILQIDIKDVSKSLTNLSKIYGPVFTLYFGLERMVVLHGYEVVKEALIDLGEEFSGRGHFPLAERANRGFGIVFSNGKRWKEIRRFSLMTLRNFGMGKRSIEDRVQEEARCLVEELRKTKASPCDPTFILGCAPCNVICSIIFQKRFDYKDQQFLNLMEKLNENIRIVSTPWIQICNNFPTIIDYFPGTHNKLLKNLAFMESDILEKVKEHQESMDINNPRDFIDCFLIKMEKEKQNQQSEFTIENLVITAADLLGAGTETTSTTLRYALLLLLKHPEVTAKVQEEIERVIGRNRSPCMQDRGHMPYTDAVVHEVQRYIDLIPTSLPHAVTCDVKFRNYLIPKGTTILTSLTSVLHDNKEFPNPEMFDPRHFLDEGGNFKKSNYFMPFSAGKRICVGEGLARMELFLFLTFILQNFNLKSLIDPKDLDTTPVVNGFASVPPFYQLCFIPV

[12] = Tmax in rat at 10 mg/kg, po; format: ADME, organism-based; set-up: dose 10 mg/kg, route oral; settings: in vivo
Cytochrome P450 2C9 = Cytochrome P450 2C9 (Homo sapiens, UniProt P11712); test: Inhibition of human CYP2C9; format: ADME
Cytochrome P450 2C9, sequence (P11712 whole entry): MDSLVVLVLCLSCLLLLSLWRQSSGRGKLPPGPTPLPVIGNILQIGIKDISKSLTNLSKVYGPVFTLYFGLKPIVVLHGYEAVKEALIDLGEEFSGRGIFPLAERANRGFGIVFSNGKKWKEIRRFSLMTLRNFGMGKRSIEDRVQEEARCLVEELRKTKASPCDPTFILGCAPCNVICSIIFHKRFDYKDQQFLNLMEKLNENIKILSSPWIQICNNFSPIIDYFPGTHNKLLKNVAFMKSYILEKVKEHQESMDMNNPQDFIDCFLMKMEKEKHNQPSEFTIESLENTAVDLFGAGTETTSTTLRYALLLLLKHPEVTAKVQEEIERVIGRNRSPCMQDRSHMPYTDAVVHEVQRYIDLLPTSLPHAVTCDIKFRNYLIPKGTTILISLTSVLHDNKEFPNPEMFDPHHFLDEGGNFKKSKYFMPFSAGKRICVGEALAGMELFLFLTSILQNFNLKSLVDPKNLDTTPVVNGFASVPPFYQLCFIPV

[13] = AUC in rat at 10 mg/kg, po; format: ADME, organism-based; set-up: dose 10 mg/kg, route oral; settings: plasma
[14] = biological target: Free fatty acid receptor 1 (Mus musculus) (UniProt Q76JU9); test: Agonist activity at GPR40 in mouse MIN6 cells assessed as stimulation of 5 mM glucose-mediated insulin secretion at 30 uM; format: functional, cell-based
[15] = biological target: Free fatty acid receptor 1 (Mus musculus, UniProt Q76JU9); test: Agonist activity at GPR40 in mouse MIN6 cells assessed as stimulation of 25 mM glucose-mediated insulin secretion; format: functional, cell-based
Free fatty acid receptor 1, sequence (Q76JU9 whole entry): as the sequence (Q76JU9 whole entry) above

Free fatty acid receptor 1 (Homo sapiens), sequence (O14842 whole entry): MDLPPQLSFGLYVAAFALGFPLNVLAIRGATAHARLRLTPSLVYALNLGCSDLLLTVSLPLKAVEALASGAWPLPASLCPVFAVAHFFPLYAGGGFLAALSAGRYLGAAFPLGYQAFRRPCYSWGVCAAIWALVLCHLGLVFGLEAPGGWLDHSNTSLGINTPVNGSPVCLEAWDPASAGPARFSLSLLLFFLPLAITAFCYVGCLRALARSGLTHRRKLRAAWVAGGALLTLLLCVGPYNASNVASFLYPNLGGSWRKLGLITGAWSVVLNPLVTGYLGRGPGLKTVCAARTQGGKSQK

ED50 [1] | Activity [2] | SMILES | also measured
3160 nM | 72% | O=C(O)CC(c1ccccc1)c1ccc(OCCCC(F)(F)F)cc1 (stereo not drawn) | 
4800 nM | 66% | CCCCOc1ccc(C(CC(=O)O)c2ccccc2O)cc1 (stereo not drawn) | 
1290 nM | 79% | CCCCOc1ccc(C(CC(=O)O)c2cccs2)cc1 (stereo not drawn) | Activity [3]: 171%
> 10000 nM | 3% | CC[C@@H](C)COc1ccc(C(CC(=O)O)c2ccccc2)cc1 (stereo in doubt; 22(A,R)) | 
2970 nM | 60% | CCCCCOc1ccc(C(CC(=O)O)c2ccccc2)cc1 (stereo not drawn) | Activity [3]: 122%
2880 nM | 68% | CCCCCCOc1ccc(C(CC(=O)O)c2ccccc2)cc1 (stereo not drawn) | Activity [3]: 137%
1860 nM | 77% | CC(C)CCOc1ccc(C(CC(=O)O)c2ccccc2)cc1 (stereo not drawn) | 
> 10000 nM | 2% | CC[C@H](C)COc1ccc(C(CC(=O)O)c2ccccc2)cc1 (stereo in doubt; 22(A,S)) | 
> 10000 nM | 3% | CCCCOc1ccc(C(CCCC(=O)O)c2ccccc2)cc1 (stereo not drawn) | 
2710 nM | 75% | C/C=C/COc1ccc(C(CC(=O)O)c2ccccc2)cc1 (stereo not drawn) | 
300 nM | 98% | CCC(C)COc1ccc(C(CC(=O)O)c2ccccc2)cc1 (stereo not drawn) | IC50 (Cytochrome P450 1A2): > 22000 nM; half-life [4]: 6.33 h; half-life [5]: 4.78 h; clearance [6]: 13.8 mL/min/kg; AUC [7]: 2480 ng·h/mL; Cmax [8]: 4760 ng/mL; Tmax [9]: 4.8 min; bioavailability [10]: 87%; IC50 (Cytochrome P450 3A4): > 22000 nM; IC50 (Cytochrome P450 2D6): > 22000 nM; Cmax [11]: 5780 ng/mL; IC50 (Cytochrome P450 2C19): > 22000 nM; Tmax [12]: 0.5 h; IC50 (Cytochrome P450 2C9): > 22000 nM; AUC [13]: 10700 ng·h/mL
1200 nM | 72% | CCCCOc1ccc(C(CC(=O)O)c2ccccc2)cc1 (stereo not drawn) | 
4260 nM | 70% | CCCCCCCOc1ccc(C(CC(=O)O)c2ccccc2)cc1 (stereo not drawn) | 
710 nM | 98% | CC[C@@H](C)COc1ccc(C(CC(=O)O)c2ccccc2)cc1 (stereo in doubt; 22(B,R)) | 
560 nM | 94% | CC[C@H](C)COc1ccc(C(CC(=O)O)c2ccccc2)cc1 (stereo in doubt; 22(B,S)) | 
2840 nM | 75% | CCCCOc1ccc(C(CC(=O)O)c2cccc(C(F)(F)F)c2)cc1 (stereo not drawn) | 
 |  | CCCCC/C=C\C/C=C\CCCCCCCC(=O)O | Activity [14]: 141%; Activity [3]: 172%
7580 nM | 43% | COCCCOc1ccc(C(CC(=O)O)c2ccccc2)cc1 (stereo not drawn) | 
2710 nM | 81% | C=C(C)CCOc1ccc(C(CC(=O)O)c2ccccc2)cc1 (stereo not drawn) | 
> 10000 nM | 3% | CCCCOc1ccc(C(CC(=O)O)c2ccc(C(F)(F)F)cc2)cc1 (stereo not drawn) | 
> 10000 nM | 6% | CCCCCOc1cccc(C(CC(=O)O)c2ccccc2)c1 (stereo not drawn) | 
4800 nM | 68% | CCCOc1ccc(C(CC(=O)O)c2ccccc2)cc1 (stereo not drawn) | 
640 nM | 96% | CCC(CC)COc1ccc(C(CC(=O)O)c2ccccc2)cc1 (stereo not drawn) | Activity [3]: 155%; EC50 [15]: 2200 nM
1440 nM | 81% | CCCCOc1ccc(C(CC(=O)O)c2cccc(F)c2)cc1 (stereo not drawn) | 
